From patent US20240246969A1, “HETEROCYCLIC DERIVATIVES AS CAMKK2 INHIBITORS” (Bristol-Myers Squibb Company, priority 2021, published 2024)
pEC50, pIC50: −log10 of the molar value. Where two headings read alike, the source gives them in different places.

Tests used:
[1] = test system: phosphorylation of CaMKK2 substrate AMPK at Thr172 in A549 lung carcinoma cells; assay: Cell-based phosphorylation assay (Phospho-AMPK Thr172 HTRF); conditions: Homo sapiens; for pIC50: A549 cells, compounds 4 hours, 3 uM Calcium Ionophore 30 minutes, read-out: Cellular IC50 Phosphorylation; for pEC50: A549, read-out: A549 pAMPK MOA EC50
Protocol: Cellular CaMKK2 inhibition by compounds was measured by monitoring the phosphorylation of CaMKK2 substrate AMPK at Thr172 in A549 lung carcinoma cells (ATCC) using CISBIO Phospho-AMPK (Thr172) HTRF kit. A549 cells were plated in 96 well plates at 8000 cells/well in DMEM+10% FBS+1× pen/step+1×NEAA and incubated at 37° C. overnight in a CO2 incubator. Cells were then treated with compounds for 4 hours. After cells were stimulated by 3 uM Calcium Ionophore (Sigma) at 37° C. for 30 minutes, cells were washed and then lysed with cell lysis buffer (CisBio) for 30 minutes. […] Plates were incubated overnight and then read using HTRF mode by BMG PHERAstarFS.

CaMKK2 = CaMKK2 (Homo sapiens, UniProt Q96RR4); assay: CaMKK2 binding assay (LanthaScreen TR-FRET)
Protocol: The ability of test compounds to bind and inhibit the activity of CaMKK2 were determined using a binding assay using LanthaScreent (Thermofisher) detection reagents in a 384-well plate format using the following assay buffer: 50 mM HEPES (pH7.5), 10 mM MgCl2, 1 mM EGTA, and 0.01% Brij-35.
A 10-point serial dilution of inhibitor compound in 0.5% DMSO was added to each well of the plate. The final assay volume in well was 15 uL. […] A ratio was calculated from the 2 readouts and fitted to a 4-parameter fit to determine the binding IC50.

[2] = test system: A549 lung carcinoma cells; assay: Cell proliferation assay (CellTiter 96 Aqueous); type: cell-based; conditions: Homo sapiens, compounds 48 hours, read-out: Cellular IC50 Proliferation
Protocol: Proliferation was measured using CellTiter 96 Aqueous Non-Radioactive Cell Proliferation Assay Kit (Promega), which determines the number of viable cells in culture based on quantitation of dehydrogenase enzymes, as an indicator of metabolically active cells. A549 lung carcinoma cells were seeded at 2,000 cells/well in a 96-well tissue culture treated plate in DMEM+10% FBS+1× pen/step+1×NEAA and incubated at 37° C. overnight in a CO2 incubator. Cells were treated with compounds for 48 hours. Then viability was measured using CellTiter 96 Aqueous Non-Radioactive Cell Proliferation Assay Kit (Promega). Detection was performed using Biotek Cytation 5 Cell Imaging Multi Mode plate reader.

[3] = Microsomes stability, human (h); type: in vitro ADME; conditions: second value of (m, h)
2C9 = 2C9 (Homo sapiens, UniProt P11712); assay: CYP450 2C9 inhibition; type: in vitro ADME
PPB, mouse (m) = type: in vitro ADME; conditions: plasma, first value of (m, h)
PPB, human (h) = type: in vitro ADME; conditions: plasma, second value of (m, h)
PK = conditions: in vivo; read-out: PK % F
pAMPK in A427 = assay: A427 pAMPK MOA assay; type: cell-based; conditions: Homo sapiens, A-427
CEREP = CEREP panel; conditions: @ 10 uM
CYP450 = CYP450 inhibition; type: in vitro ADME; conditions: all isoforms except 2C9
[4] = Microsomes stability, mouse (m); type: in vitro ADME; conditions: first value of (m, h)
CaMKK1 = CaMKK1 (Homo sapiens, UniProt Q8N5S9); assay: CaMKK1 IC50; type: binding
KSP (72) kinases = test system: KSP (72) kinases; parameters: dose or concentration left out as unconfirmed; conditions: of 72 kinases

Chain of CaMKK1 (Q8N5S9 whole entry, species assumed): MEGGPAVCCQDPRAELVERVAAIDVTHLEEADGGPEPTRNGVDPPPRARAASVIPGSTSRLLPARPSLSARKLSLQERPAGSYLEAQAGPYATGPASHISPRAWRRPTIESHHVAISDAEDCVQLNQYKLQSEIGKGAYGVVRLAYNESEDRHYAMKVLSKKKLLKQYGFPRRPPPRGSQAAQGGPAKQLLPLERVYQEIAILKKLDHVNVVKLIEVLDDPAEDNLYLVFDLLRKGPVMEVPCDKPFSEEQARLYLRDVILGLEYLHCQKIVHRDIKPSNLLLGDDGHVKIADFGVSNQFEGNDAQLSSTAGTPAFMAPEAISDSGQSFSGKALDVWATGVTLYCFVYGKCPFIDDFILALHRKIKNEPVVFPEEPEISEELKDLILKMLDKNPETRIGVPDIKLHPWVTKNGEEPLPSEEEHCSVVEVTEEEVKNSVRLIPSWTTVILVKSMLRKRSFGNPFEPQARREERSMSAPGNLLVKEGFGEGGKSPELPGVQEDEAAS
Chain of CaMKK2 (Q96RR4 whole entry): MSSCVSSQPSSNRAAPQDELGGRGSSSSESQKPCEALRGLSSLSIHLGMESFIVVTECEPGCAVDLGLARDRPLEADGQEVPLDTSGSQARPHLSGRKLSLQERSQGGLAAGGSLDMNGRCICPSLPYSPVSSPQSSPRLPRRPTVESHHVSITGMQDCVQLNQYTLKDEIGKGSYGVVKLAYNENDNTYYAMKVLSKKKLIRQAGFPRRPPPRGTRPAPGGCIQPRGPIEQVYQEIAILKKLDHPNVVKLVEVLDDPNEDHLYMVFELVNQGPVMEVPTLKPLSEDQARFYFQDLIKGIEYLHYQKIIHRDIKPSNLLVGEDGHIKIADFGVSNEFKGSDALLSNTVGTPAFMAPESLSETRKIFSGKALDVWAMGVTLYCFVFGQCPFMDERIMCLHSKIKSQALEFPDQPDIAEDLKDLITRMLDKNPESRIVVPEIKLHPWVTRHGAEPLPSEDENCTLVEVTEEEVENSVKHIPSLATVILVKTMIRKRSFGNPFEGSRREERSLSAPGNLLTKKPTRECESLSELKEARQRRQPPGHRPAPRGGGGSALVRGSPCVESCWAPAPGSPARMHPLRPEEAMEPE
Chain of 2C9 (P11712 whole entry): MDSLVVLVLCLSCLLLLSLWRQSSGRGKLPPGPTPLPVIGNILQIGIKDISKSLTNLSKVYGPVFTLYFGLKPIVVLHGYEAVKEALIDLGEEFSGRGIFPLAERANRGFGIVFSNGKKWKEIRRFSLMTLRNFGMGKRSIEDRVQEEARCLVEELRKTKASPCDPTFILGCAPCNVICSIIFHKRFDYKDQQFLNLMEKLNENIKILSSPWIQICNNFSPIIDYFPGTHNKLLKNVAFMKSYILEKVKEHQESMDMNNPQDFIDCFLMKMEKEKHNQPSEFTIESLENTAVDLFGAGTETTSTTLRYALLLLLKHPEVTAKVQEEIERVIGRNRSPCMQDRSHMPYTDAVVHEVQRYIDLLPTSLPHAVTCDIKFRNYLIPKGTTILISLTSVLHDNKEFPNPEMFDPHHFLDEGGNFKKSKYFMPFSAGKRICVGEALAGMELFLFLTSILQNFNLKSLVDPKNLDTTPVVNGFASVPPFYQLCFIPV

Row | SMILES | pIC50 [1] | pIC50 (CaMKK2) | pIC50 [2] | also measured
1 | CCOc1ccc2c(-c3ccc(C(=O)O)c(C4CCCC4)c3)ncnc2c1 [Example 5.1, 2-cyclopentyl-4-(7-ethoxyquinazolin-4-yl)benzoic acid] | – | – | – | Microsomes (h) Stability60 [3]: 100%; Microsomes (h) UGT [3]: 89%; CYP450 2C9 (2C9): 2C9 (4 mM); fraction unbound (PPB, mouse (m)): 0.015; fraction unbound (PPB, human (h)): 0.01; bioavailability (PK): 80%; pEC50 (pAMPK in A427): 7.13; CEREP (CEREP): no inhibition >50%; CYP450 (CYP450): > 30 µM; Microsomes (m) Stability60 [4]: Stability60: 96, %; Microsomes (m) UGT [4]: 79%
2 | CCOc1cc(F)c2c(-c3ccc(C(=O)O)c(C4CCCC4)c3)ncnc2c1 [Example 5.2, 2-cyclopentyl-4-(7-ethoxy-5-fluoroquinazolin-4-yl)benzoic acid] | – | – | – | pIC50 (CaMKK1): 7.92
3 | CCOc1ccc2c(-c3ccc(C(=O)O)c(C4CCCC4)c3)ccnc2c1 [Example 5.3, 2-cyclopentyl-4-(7-ethoxyquinolin-4-yl)benzoic acid] | – | – | – | Microsomes (h) CYP/UGT60 [3]: 67%; pEC50 [1]: 7.22; pIC50 (CaMKK2; Table 8): 8.82; fraction unbound (PPB, mouse (m)): < 0.01; fraction unbound (PPB, human (h)): < 0.01; pIC50 (CaMKK1): 8.77; bioavailability (PK): 58%; Kinase Selectivity KSP (72) (KSP (72) kinases): 6 of 72 @; pEC50 (pAMPK in A427): 7.52; Microsomes (m) CYP/UGT60 [4]: CYP/UGT60: 66, %
4 | CCOc1ccc2c(-c3ccc(C(=O)O)c(C(C)C)c3)c(F)cnc2c1 [Example 5.4, 4-(7-ethoxy-3-fluoroquinolin-4-yl)-2-isopropylbenzoic acid] | – | – | – | pEC50 [1]: 7.10; pIC50 (CaMKK2; Table 8): 8.96; pIC50 (CaMKK1): 8.77; Kinase Selectivity KSP (72) (KSP (72) kinases): 6 of 72 @
5 | O=C(O)c1ccc(-n2ccc3ncc(-c4ccccc4)nc32)cc1NC1CCCC1 [Example 7, 2-(Cyclopentylamino)-4-(3-phenyl-5H-pyrrolo[2,3-b]pyrazin-5-yl)benzoic Acid] | 5.00 to 6.00 | > 7.00 | < 5.00 | –
6 | O=C(O)c1ccc(-n2ccc3ncc(C4CC4)nc32)cc1C1CCCC1 [Example 18, 2-Cyclopentyl-4-(3-cyclopropyl-5H-pyrrolo[2,3-b]pyrazin-5-yl)benzoic Acid] | 6.00 to 7.00 | > 7.00 | < 5.00 | –
7 | N#CNC(=O)c1ccc(-n2ccc3ncc(C4CC4)nc32)cc1C1CCCC1 [Example 19, N-Cyano-2-cyclopentyl-4-(3-cyclopropyl-5H-pyrrolo[2,3-b]pyrazin-5-yl)benzamide] | 5.00 to 6.00 | > 7.00 | < 5.00 | –
8 | c1cc(-c2nn[nH]n2)c(C2CCCC2)cc1-n1ccc2ncc(C3CC3)nc21 [Example 20, 5-(3-cyclopentyl-4-(2H-tetrazol-5-yl)phenyl)-3-cyclopropyl-5H-pyrrolo[2,3-b]pyrazine] | < 5.00 | > 7.00 | < 5.00 | –

Now from value to compound, other results behind:

Row | pIC50 [1] | pIC50 (CaMKK2) | pIC50 [2] | SMILES | also measured
9 | 6.00 to 7.00 | > 7.00 | < 5.00 | COc1cc(F)cc(-n2cc3ncc(F)c(-c4ccc(C(=O)O)c(C5CCCC5)c4)c3n2)c1 [Example 3.17, 2-Cyclopentyl-4-(6-fluoro-2-(3-fluoro-5-methoxyphenyl)-2H-pyrazolo[4,3-b]pyridin-7-yl)benzoic Acid] | –
10 | 6.00 to 7.00 | > 7.00 | < 5.00 | Cc1cc(OC(F)(F)F)cc(-n2cc3ncc(F)c(-c4ccc(C(=O)O)c(C5CCCC5)c4)c3n2)c1 [Example 3.18, 2-Cyclopentyl-4-(6-fluoro-2-(3-methyl-5-(trifluoromethoxy)phenyl)-2H-pyrazolo[4,3-b]pyridin-7-yl)benzoic Acid] | –
11 | 6.00 to 7.00 | > 7.00 | < 5.00 | O=C(O)c1ccc(-c2ccnn3cc(-c4ccccc4)cc23)cc1C1CCCC1 [Example 4.1, 2-Cyclopentyl-4-(6-phenylpyrrolo[1,2-b]pyridazin-4-yl)benzoic Acid] | –
12 | 6.00 to 7.00 | > 7.00 | < 5.00 | CCNc1cc(-n2ccc3ncc(-c4ccccc4)nc32)ccc1C(=O)O [Example 5, 2-(Ethylamino)-4-(3-phenylpyrrolo[2,3-b]pyrazin-5-yl)benzoic Acid] | –
13 | 6.00 to 7.00 | > 7.00 | < 5.00 | O=C(O)c1ccc(-n2ccc3ncc(-c4ccccc4)nc32)cc1NCC1CC1 [Example 6, 2-((Cyclopropylmethyl)amino)-4-(3-phenyl-5H-pyrrolo[2,3-b]pyrazin-5-yl)benzoic Acid] | –
14 | 6.00 to 7.00 | > 7.00 | < 5.00 | CCNc1cc(-n2ccc3ncc(-c4ccc(F)cc4F)nc32)ccc1C(=O)O [Example 9, 4-(3-(2,4-Difluorophenyl)-5H-pyrrolo[2,3-b]pyrazin-5-yl)-2-(ethylamino)benzoic Acid] | –
15 | 6.00 to 7.00 | > 7.00 | < 5.00 | Cn1cc2cc(-c3cnc4ccn(-c5ccc(C(=O)O)c(NCC6CC6)c5)c4n3)ccc2n1 [Example 12, 2-(Cyclopropylmethylamino)-4-(3-(2-methyl-2H-indazol-5-yl)-5H-pyrrolo[2,3-b]pyrazin-5-yl)benzoic Acid] | –
16 | 6.00 to 7.00 | > 7.00 | < 5.00 | CCNc1cc(-n2ccc3ncc(-c4ccc5nn(C)cc5c4)nc32)ccc1C(=O)O [Example 13, 2-(Ethylamino)-4-(3-(2-methyl-2H-indazol-5-yl)-5H-pyrrolo[2,3-b]pyrazin-5-yl)benzoic Acid] | –
17 | > 7.00 | 6.00 to 7.00 | < 5.00 | Cc1cc(C)cc(-c2cnc3ccn(-c4ccc(C(=O)O)c(OC5CNC5)c4)c3n2)c1 [Example 24, 2-(azetidin-3-yloxy)-4-(3-(3,5-dimethylphenyl)-5H-pyrrolo[2,3-b]pyrazin-5-yl)benzoic Acid] | –
